Measurements published in a melting point compilation (Tetko et al.).

| melting point [°C] | SMILES |
| --- | --- |
| 111 to 115 | C1COCCOCCNCCOCCOCCN1 |
| 88 to 90 | Cc1noc(C)c1-c1nc(CCl)no1 |
| 49 to 50 | Fc1c(F)c(F)c(I)c(I)c1F |
| 67 to 69 | ClCc1ccc(-c2nccs2)cc1 |
| 99 to 100 | COC(=O)c1ccc2nccnc2c1 |
| 184 to 185 | Nc1nccc(-c2cc(-c3cccc(C(F)(F)F)c3)no2)n1 |
| 21 | O=S(=O)(Cl)c1cccc(Cl)c1 |
| 124 | OCc1ccc(O)cc1 |
| -45 | CCN(CC)C(=O)c1cccc(C)c1 |
| 83 | COC(=O)c1c(C=O)ccc(OC)c1OC |
| -32 | CCCCCCCCCCCC(C)CC (stereo unspecified) |
| 223 to 227 | Cc1ccc(C(N)CC(=O)O)cc1 (stereo unspecified) |
| 61 to 63 | O=S(=O)(Cl)c1cccc(Cl)c1Cl |
| 97 | Nc1ncc(Cl)cc1I |
| 200 | CC(C)(C(=O)O)C(C)(C)C(=O)O |
| 77 to 78 | Cn1nc(-c2cccs2)cc1CN |
| 163 to 166 | CC1(C)OC2C(CO)OC(n3ccc(=O)[nH]c3=O)C2O1 (stereo unspecified) |

| melting point [°C] | SMILES |
| --- | --- |
| 74 | c1ccc2c3c([nH]c2c1)CCCCCC3 |
| 100 | CCOc1ccc(NC(=O)OC(C)C)cc1OCC |
| 134 to 135 | S=C(Nc1ccccc1)C(=S)Nc1ccccc1 |
| 71 to 73 | Nc1ccc(OC2CCOCC2)cc1 |
| 93.5 | CC(C)NNC(=O)COc1ccc(Cl)cc1 |
| 254 to 258 | N#Cc1cn(C2CC2)c(=O)[nH]c1=O |
| 117 | COC(=O)c1cc(C)n(C)c1C |
| 143 to 146 | Brc1ccc(-c2ccc(Br)s2)s1 |
| 164 | CCOC(=O)C1=C(C)NC(C)=C(C(=O)OCC)C1c1ccco1 |
| 117 to 119 | CC(=O)c1cc(-c2c(Cl)cccc2Cl)no1 |
| 85 | Cc1cccc(C)c1NC(=O)c1cnc(C(C)(C)C)cn1 |
| 103 to 104 | Cn1c(CO)cc2sccc21 |
| 68 | CC(CN(C)C)CN1c2ccccc2Sc2ccccc21 (stereo unspecified) |
| 100 to 101 | Cc1ccc(-c2ccc(C=CC(=O)c3ccccc3)o2)cc1 |
| 197 to 204 | NCCCC(=O)O |
| 150 to 153 | CCc1cc(C(F)(F)F)c2c([nH]c3ccccc32)c1CO |

The remaining lines, values behind:

| SMILES | melting point [°C] |
| --- | --- |
| CC1=CC[C@@H]2[C@@H]3CCC4CC(=O)CC[C@]4(C)[C@H]3CC[C@]12C (stereo partly specified) | 140 to 141 |
| CN1C(=O)C(=NNc2ccc(Br)cc2)C(=O)N(C)C1=O | 218 |
| Nc1ccc(I)cn1 | 128 |
| COc1ccc(C=C2SC(=S)N(CN3CCCCC3)C2=O)cc1 | 222 to 223 |
| NCCc1c[nH]cn1 | 86 |
| CCC(C)c1ccccc1O (stereo unspecified) | 16 |
| O=C(O)C1CCC(C(F)(F)F)CC1 (stereo unspecified) | 63 to 65 |
| COCCOc1cnc(NS(=O)(=O)c2ccccc2)nc1 | 152 |
| Cc1ccc(C=C(C#N)C#N)cc1 | 132 to 133 |
| CN(C)c1ccc(C2Nn3c(nnc3-c3cccc([N+](=O)[O-])c3)S2)cc1 (stereo unspecified) | 197 to 199 |
| Clc1cc2oc3cc(Cl)c(Cl)cc3c2cc1Cl | 227 |
| CCCCC(C)(O)CC (stereo unspecified) | -83 |
| O=Cc1ccc(-c2cccs2)cc1 | 67 to 68 |
| COc1ccc(C(=O)CC(=O)c2ccc(C(C)(C)C)cc2)cc1 | 83.5 |
| CSCCC(N)C(=O)O (stereo unspecified) | 281 |
| CCCCCCCOC(=O)CCCCC | -34.4 |
| C/C(=N\Nc1ccc([N+](=O)[O-])cc1[N+](=O)[O-])c1ccccc1O | 259 |
| Nc1ccc2c(n1)[nH]c1ccccc12 | 202 |
| CNC(=O)c1cc([N+](=O)[O-])cc([N+](=O)[O-])c1 | 148 to 149 |
| NC(=O)N1C(=O)C=CC1=O | 159 |
| Oc1c(Cl)cc(Cl)c2ccccc12 | 108 |

| SMILES | melting point [°C] |
| --- | --- |
| Cc1ccc(S(=O)(=O)n2cc(C=CC(=O)O)c3ccccc32)cc1 | 238 to 241 |
| Cl/C(=C\c1ccccc1)c1ccc2c3c(cccc13)CC2 | 77 |
| CCCCCCCCCCCCCCCCCCCC(=O)OC | 54.5 |
| C#CCCCCC | -81 |
| CC1(C)C(=O)OC2=C(CCCC2=Cc2ccccc2)C1c1ccccc1 (stereo unspecified) | 155 to 157 |
| O=S(=O)(Cl)c1cc(Cl)c(O)c(Cl)c1 | 119 |
| COc1ccc2nc(-c3ccccc3)cc(Cl)c2c1 | 121 to 124 |
| CCCCCCCCOC(=O)CCC | -55.6 |
| O=[N+]([O-])c1cccc(-c2nnc3n2NC(c2ccco2)S3)c1 (stereo unspecified) | 190 |
| CC(=O)NCCCCC(N)C(=O)O (stereo unspecified) | 250 |
| CCCCCCCCCCCCCCCCCC(=O)OCC(COC(=O)CCCCCCCCCCCCCCCCC)OC(=O)CCCCCCCCCCCCCCCCC | 55 |
| CC(C)CN(CC(C)C)CC(C)C | -21.8 |
| ClC1CCCCC1Cl (stereo unspecified) | -1.5 |
| Cc1ccc(C(c2ccc(C)o2)c2cc(I)ccc2O)o1 | 104 |
| CSC(SC)=C(C(C)=O)C(C)=O | 61 |
| Cc1cc(C(F)(F)F)n2nc(N)c(/N=N/c3cc(Cl)c(Cl)cc3Cl)c2n1 | 228 |
| C=C(Br)c1ccccc1 | -44 |
| c1ccc2cc3cc4cc5ccccc5cc4cc3cc2c1 | 300 |
| CCC(O)(CC)C1(C)CCC(C(=O)O)C(C)(C)O1 (stereo unspecified) | 138 |
| N#CCCN1CCCCC1 | -6.8 |
| CC(O)C(NC(=O)OC(C)(C)C)C(=O)O (stereo unspecified) | 79 |

| SMILES | melting point [°C] |
| --- | --- |
| C=CSC=C | 20 |
| CC(C)(C)OC(=O)NC1CCNC1 (stereo unspecified) | 67 |
| O=C(Cl)c1ccc(Cl)nc1 | 50 |
| O=Cc1cc([N+](=O)[O-])ccc1N1CCOCC1 | 115 |
| CC(C)n1nnc2cc(C(=O)O)ccc21 | 222 to 227 |
| Cc1ccc(C(=O)C2=NOC3C(=O)N(c4ccc(O)cc4)C(=O)C23)cc1 (stereo unspecified) | 120 |
| Cn1c(/C(C#N)=C/c2ccc(F)cc2)nc2ccccc21 | 133 |
| O=[N+]([O-])c1sc2ccccc2c1Br | 165 to 167 |
| O=C1OC(c2ccccc2)=NC1=Cc1ccc(Br)cc1 | 192 to 193 |
| CCOC(=O)c1cnn(-c2ccc(N)cc2)c1C | 91 to 92 |
| N#Cc1ccccc1N=C=O | 61 to 62 |
| Cn1ncc2c(=N)n(N)cnc21 | 185 |
| BrCCCOc1ccc2cc3ccc(OCCCBr)cc3nc2c1 | 142 |
| O=C(O)c1cccnc1C(=O)O | 228 |
| S=C1NC(=S)C(c2ccccc2)(c2ccccc2)N1 | 263 |
| Nc1ccnc(Br)c1 | 98 |
| Cc1nn(-c2ccccc2)c(Cl)c1C=O | 144 to 148 |
| CC12CCC3C(CCC4CC(CC(=O)O)=CCC43C)C1CCC2=O (stereo unspecified) | 175 to 178 |
| CC(C)(C)OC(=O)N1CCN(c2cc(C(=O)O)ccn2)CC1 | 174 to 176 |
| CC(C)OC(=O)C1=C(C(=O)O)C2c3ccccc3C1c1ccccc12 | 176 |
| Cc1ccc(F)cc1C#N | 43 to 45 |
